Measured values as given in patent publication US20260042764A1, “COMPOSITIONS AND METHODS FOR INHIBITION OF KRAS” (TheRas, Inc., priority 2022, published 2026).

Legend:
[1] = molecular target: T1, Avi-KRAS G12D (2-169) GTP/RAF1 RBD-3xFLAG (51-131) (Homo sapiens, UniProt P01116, G12D); assay: Raf1-KRAS G12D-GTP disruption HTRF assay (Biological Example 3); format: binding; conditions: KRAS G12D, GTP-loaded
T1 construct: Avi-KRAS G12D (2-169)
Summary of the method: (§1)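 Compounds were titrated 10-point, 3-fold from 30 μM against preformed KRAS-GTP:RAF1 RBD (51-131) complexes at 50 nM, using KRAS 2-169 as WT, G12C, G12D or G12V. After 1 h at room temperature in Tris pH 7.5 buffer with MgCl2 and 10% DMSO, time-resolved fluorescence was read. Results are percent activity versus DMSO.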

[2] = molecular target: T2, Avi-KRAS G12V (2-169) GTP/RAF1 RBD-3xFLAG (51-131) (Homo sapiens, UniProt P01116, G12V); assay: Raf1-KRAS G12V-GTP disruption HTRF assay (Biological Example 3); format: binding; conditions: KRAS G12V, GTP-loaded
T2 construct: Avi-KRAS G12V (2-169)
Summary of the method: as §1

[3] = tested on: GP2d cells (KRAS G12D); assay: Cell-based pERK HTRF assay in GP2d cell (Biological Example 2); conditions: GP2d (KRAS G12D) cells
Summary of the method: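 Cells grown in DMEM with 10% FBS were exposed to compound for 60 min at 0.25% DMSO, using a 9-point half-log series starting at 1 μM or 100 nM. Lysates were then mixed with d2 and Eu cryptate antibodies for 4–24 h at room temperature, and pERK was read by HTRF.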

[4] = molecular target: T3, Avi-KRAS WT (2-169) GTP/RAF1 RBD-3xFLAG (51-131) (Homo sapiens, UniProt P01116); assay: Raf1-KRAS WT-GTP disruption HTRF assay (Biological Example 3); format: binding; conditions: KRAS WT, GTP-loaded
T3 construct: Avi-KRAS WT (2-169)
Summary of the method: as §1

[5] = molecular target: T4, Avi-KRAS G12C (2-169) GTP/RAF1 RBD-3xFLAG (51-131) (Homo sapiens, UniProt P01116, G12C); assay: Raf1-KRAS G12C-GTP disruption HTRF assay (Biological Example 3); format: binding; conditions: KRAS G12C, GTP-loaded
T4 construct: Avi-KRAS G12C (2-169)
Summary of the method: as §1

[6] = tested on: SW620 cells (KRAS G12V); assay: Cell-based pERK HTRF assay in SW620 cell (Biological Example 4)
Summary of the method: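 SW620 (KRAS G12V) cells seeded at 3×10^4/well in RPMI, 10% FBS, then treated next day for 4 h with a 9-point half-log series from 1 μM top (0.25% DMSO). Lysates analyzed for pERK by HTRF (Eu cryptate/d2 antibodies, 4–24 h at room temperature), excitation 320 nm, emission 615 nm.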

[7] = Homo sapiens, SW-620, SW620 (KRAS G12V) cells

T4 sequence (P01116 2-169 isoform P01116-2 G12C): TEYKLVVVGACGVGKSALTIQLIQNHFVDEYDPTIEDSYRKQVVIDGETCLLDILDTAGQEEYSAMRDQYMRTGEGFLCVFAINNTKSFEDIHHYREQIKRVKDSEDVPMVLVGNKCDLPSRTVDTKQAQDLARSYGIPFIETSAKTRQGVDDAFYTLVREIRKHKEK
T1 sequence (P01116 2-169 isoform P01116-2 G12D): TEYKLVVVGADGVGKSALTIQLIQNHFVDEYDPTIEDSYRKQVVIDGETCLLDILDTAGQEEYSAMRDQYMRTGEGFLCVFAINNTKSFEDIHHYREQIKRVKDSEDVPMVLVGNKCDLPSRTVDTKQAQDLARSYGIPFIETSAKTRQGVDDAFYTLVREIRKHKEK
T2 sequence (P01116 2-169 isoform P01116-2 G12V): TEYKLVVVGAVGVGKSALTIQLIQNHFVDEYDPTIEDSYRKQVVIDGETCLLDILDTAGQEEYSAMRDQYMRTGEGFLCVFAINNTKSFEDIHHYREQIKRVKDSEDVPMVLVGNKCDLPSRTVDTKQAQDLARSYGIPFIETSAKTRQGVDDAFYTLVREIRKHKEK
T3 sequence (P01116 2-169 isoform P01116-2): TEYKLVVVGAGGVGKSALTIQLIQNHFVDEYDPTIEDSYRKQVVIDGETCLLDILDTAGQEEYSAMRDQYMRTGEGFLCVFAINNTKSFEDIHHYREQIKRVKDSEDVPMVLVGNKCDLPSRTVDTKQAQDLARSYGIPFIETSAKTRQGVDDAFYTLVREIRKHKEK

Row | IC50 [1] | IC50 [2] | IC50 ([3]; GP2d) | IC50 [4] | IC50 [5] | IC50 [6, 7] | IC50 [3] | IC50 ([6]; SW620 (KRAS G12V) cells) | Compound
1 | 100 to 1000 nM | ≤ 100 nM | < 100 nM | 100 to 1000 nM | ≤ 100 nM | < 100 nM | – | – | CCN(c1nc(OC[C@@]23CCCN2C[C@H](F)C3)nc2c(F)c(-c3ccc(F)c4sc(N)c(C#N)c34)c(C(F)(F)F)cc12)[C@H]1C[C@H](C)N(C(=O)C2C[C@H]2F)C1 (stereo partly drawn) [Compound 884]
2 | 100 to 1000 nM | 100 to 1000 nM | < 100 nM | 100 to 1000 nM | 100 to 1000 nM | < 100 nM | – | – | CCN(c1nc(OC[C@@]23CCCN2C[C@H](F)C3)nc2c(F)c(-c3ccc(F)c4sc(N)c(C#N)c34)c(C(F)(F)F)cc12)[C@H]1C[C@H]2CN(C3COC3)C(=O)N2C1 (atropisomer, axis not shown) [Compound 958]
3 | 100 to 1000 nM | 100 to 1000 nM | < 100 nM | 100 to 1000 nM | 100 to 1000 nM | < 100 nM | – | – | CCN(c1nc(OC[C@@]23CCCN2C[C@H](F)C3)nc2c(F)c(-c3ccc(F)c4sc(N)c(C#N)c34)c(C(F)(F)F)cc12)[C@@H]1CN2C(=O)N(C)C[C@]2(C)C1 (atropisomer, axis not shown) [Compound 858]
4 | 100 to 1000 nM | 100 to 1000 nM | < 100 nM | 100 to 1000 nM | 100 to 1000 nM | < 100 nM | – | – | CCN(c1nc(OC[C@@]23CCCN2C[C@H](F)C3)nc2c(F)c(-c3ccc(F)c4sc(N)c(C#N)c34)c(C(F)(F)F)cc12)[C@H]1CCN(C(=O)c2ccon2)[C@@H]1C [Compound 838]
5 | 1000 to 10000 nM | > 10000 nM | < 100 nM | > 10000 nM | > 10000 nM | 100 to 1000 nM | – | – | CCN(c1nc(OC[C@@]23CCCN2C[C@H](F)C3)nc2c(F)c(-c3ccc(F)c4sc(N)c(C#N)c34)c(C(F)(F)F)cc12)[C@H]1C=C[C@@H](C(=O)N(C)C)C1 (atropisomer, axis not shown) [Compound 938]
6 | 100 to 1000 nM | 100 to 1000 nM | < 100 nM | 100 to 1000 nM | 100 to 1000 nM | < 100 nM | – | – | CCN(c1nc(OC[C@@]23CCCN2C[C@H](F)C3)nc2c(F)c(-c3ccc(F)c4sc(N)c(C#N)c34)c(C(F)(F)F)cc12)[C@H]1CCN(C(=O)c2cocn2)[C@@H]1C (atropisomer, axis not shown) [Compound 900]
7 | 1000 to 10000 nM | 1000 to 10000 nM | < 100 nM | 1000 to 10000 nM | 1000 to 10000 nM | < 100 nM | – | – | CCN(c1nc(OC[C@@]23CCCN2C[C@H](F)C3)nc2c(F)c(-c3ccc(F)c4sc(N)c(C#N)c34)c(C(F)(F)F)cc12)[C@@H]1C=C[C@H](C(=O)N(C)C)C1 (atropisomer, axis not shown) [Compound 937]
8 | 1000 to 10000 nM | > 10000 nM | < 100 nM | > 10000 nM | > 10000 nM | < 100 nM | – | – | CCN(c1nc(OCC23CCCN2CC(F)C3)nc2c(F)c(-c3ccc(F)c4sc(N)c(C#N)c34)c(C(F)(F)F)cc12)C(C)c1cccnc1 (stereo not drawn) [Compound 933]
9 | 100 to 1000 nM | 100 to 1000 nM | < 100 nM | 100 to 1000 nM | 100 to 1000 nM | < 100 nM | – | – | CCN(c1nc(OC[C@@]23CCCN2C[C@H](F)C3)nc2c(F)c(-c3ccc(F)c4sc(N)c(C#N)c34)c(C(F)(F)F)cc12)[C@H]1CCN(C(=O)c2cccs2)C1 (atropisomer, axis not shown) [Compound 920]
10 | ≤ 100 nM | ≤ 100 nM | < 100 nM | ≤ 100 nM | ≤ 100 nM | < 100 nM | – | – | CCN(c1nc(OC[C@@]23CCCN2C[C@H](F)C3)nc2c(F)c(-c3ccc(F)c4sc(N)c(C#N)c34)c(C(F)(F)F)cc12)[C@H]1C[C@H]2C[C@@H](C)C(=O)N2C1 (atropisomer, axis not shown) [Compound 866]
11 | 100 to 1000 nM | 100 to 1000 nM | – | 100 to 1000 nM | 100 to 1000 nM | – | < 100 nM | < 100 nM | CCN(c1nc(OCC23CCCN2CC(F)C3)nc2c(F)c(-c3ccc(F)c4sc(N)c(C#N)c34)c(C(F)(F)F)cc12)C1CCN(C(=O)c2ccc(Cl)s2)C1 (stereo not drawn) [Compound 929]
12 | 100 to 1000 nM | 100 to 1000 nM | < 100 nM | 100 to 1000 nM | 100 to 1000 nM | < 100 nM | – | – | CCN(c1nc(OC[C@@]23CCCN2C[C@H](F)C3)nc2c(F)c(-c3ccc(F)c4sc(N)c(C#N)c34)c(C(F)(F)F)cc12)[C@H]1CCN(C(=O)O[C@H]2CCCOC2)C1 (atropisomer, axis not shown) [Compound 822]
13 | 1000 to 10000 nM | 1000 to 10000 nM | < 100 nM | 1000 to 10000 nM | 1000 to 10000 nM | < 100 nM | – | – | C[C@H](c1cccnc1)N(C)c1nc(OC[C@@]23CCCN2C[C@H](F)C3)nc2c(F)c(-c3ccc(F)c4sc(N)c(C#N)c34)c(C(F)(F)F)cc12 (atropisomer, axis not shown; (aS)) [Compound 904, 2-amino-7-fluoro-4-((S)-8-fluoro-2-(((2R,7aS)-2-fluorotetrahydro-1H-pyrrolizin-7a(5H)-yl)methoxy)-4-(methyl((R)-1-(pyridin-3-yl)ethyl)amino)-6-(trifluoromethyl)quinazolin-7-yl)benzo[b]thiophene-3-carbonitrile]
14 | 1000 to 10000 nM | 1000 to 10000 nM | < 100 nM | 1000 to 10000 nM | 1000 to 10000 nM | < 100 nM | – | – | CCN(c1nc(OC[C@@]23CCCN2C[C@H](F)C3)nc2c(F)c(-c3ccc(F)c4sc(N)c(C#N)c34)c(C(F)(F)F)cc12)[C@@H]1CCN(c2cccn(C)c2=O)C1 [Compound 964]
15 | 100 to 1000 nM | 100 to 1000 nM | < 100 nM | 100 to 1000 nM | 100 to 1000 nM | < 100 nM | – | – | CCN(c1nc(OC[C@@]23CCCN2C[C@H](F)C3)nc2c(F)c(-c3ccc(F)c4sc(N)c(C#N)c34)c(C(F)(F)F)cc12)[C@H]1CCN(C(=O)O[C@@H]2CCOC2)[C@@H]1C (atropisomer, axis not shown) [Compound 824]
16 | 100 to 1000 nM | 100 to 1000 nM | < 100 nM | 1000 to 10000 nM | 100 to 1000 nM | < 100 nM | – | – | N#Cc1c(N)sc2c(F)ccc(-c3c(C(F)(F)F)cc4c(N(CCF)[C@H]5CCN(C(=O)[C@@H]6CC6(F)F)C5)nc(OC[C@@]56CCCN5C[C@H](F)C6)nc4c3F)c12 (atropisomer, axis not shown) [Compound 843]
17 | 100 to 1000 nM | 100 to 1000 nM | < 100 nM | 1000 to 10000 nM | 100 to 1000 nM | < 100 nM | – | – | CN(Cc1ncco1)c1nc(OC[C@@]23CCCN2C[C@H](F)C3)nc2c(F)c(-c3ccc(F)c4sc(N)c(C#N)c34)c(C(F)(F)F)cc12 (atropisomer, axis not shown) [Compound 885]
18 | 100 to 1000 nM | 100 to 1000 nM | < 100 nM | 100 to 1000 nM | 100 to 1000 nM | < 100 nM | – | – | CCN(c1nc(OC[C@@]23CCCN2C[C@H](F)C3)nc2c(F)c(-c3ccc(F)c4sc(N)c(C#N)c34)c(C(F)(F)F)cc12)[C@H]1CCN(C(=O)C2CC2(F)F)[C@@H]1C (stereo partly drawn) [Compound 888]
19 | 100 to 1000 nM | 100 to 1000 nM | < 100 nM | 1000 to 10000 nM | 100 to 1000 nM | 100 to 1000 nM | – | – | CN(C)C(=O)N1CC[C@H](N(CCF)c2nc(OC[C@@]34CCCN3C[C@H](F)C4)nc3c(F)c(-c4ccc(F)c5sc(N)c(C#N)c45)c(C(F)(F)F)cc23)C1 (atropisomer, axis not shown) [Compound 828]
20 | 100 to 1000 nM | 1000 to 10000 nM | < 100 nM | 1000 to 10000 nM | 1000 to 10000 nM | < 100 nM | – | – | CCN(c1nc(OC[C@@]23CCCN2C[C@H](F)C3)nc2c(F)c(-c3ccc(F)c4sc(N)c(C#N)c34)c(C(F)(F)F)cc12)[C@H]1C[C@@H]2CCCC(=O)N2C1 (atropisomer, axis not shown) [Compound 663]
21 | 100 to 1000 nM | ≤ 100 nM | < 100 nM | 100 to 1000 nM | ≤ 100 nM | < 100 nM | – | – | CCN(c1nc(OC[C@@]23CCCN2C[C@H](F)C3)nc2c(F)c(-c3ccc(F)c4sc(N)c(C#N)c34)c(C(F)(F)F)cc12)[C@H]1CC(=O)N2CCC[C@H]12 (atropisomer, axis not shown) [Compound 880]
